The nature of assay [1]: inhibitors of NFkB activation in CF airway cells, SAR follow-up, KKLEB cells, panel, IL8 HTRF, NFkB-GFP (AID 651592).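 Further: immortalized cystic fibrosis airway epithelial KKLEB cells with an NF-kB GFP reporter.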 The conditions noted are these: PAF/TNFa-induced NFkB-GFP / IL8 HTRF, CF-PAF assay. (In general: Time-resolved FRET reads energy transfer from a long-lived donor to a nearby acceptor.)
In the next assay the test system is IL8. The description is as above. The conditions noted are these: PAF/TNFa-induced NFkB-GFP / IL8 HTRF, mean of runs, mean IC50 across panel replicates.
The target of assay [2] is Interleukin-8 (Homo sapiens) (UniProt P10145). The assay is described as above. The conditions noted are these: PAF/TNFa-induced NFkB-GFP / IL8 HTRF.
The mark [3] stands for this setting: mean of runs, mean IC50 across panel replicates.

Interleukin-8 (Homo sapiens), sequence (P10145 whole entry, looked up): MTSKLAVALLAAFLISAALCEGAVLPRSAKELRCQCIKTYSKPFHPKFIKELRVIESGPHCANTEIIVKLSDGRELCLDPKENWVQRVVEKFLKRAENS

As to `O=C(Nc1ccc(N2CCN(C(=O)c3ccccc3Cl)CC2)cc1)c1cc(Br)cc(Br)c1`, the IC50 in assay [1] (setting [3]), in assay [1] (run 1), in assay [1] (run 2), in assay [1] (run 3), in assay [1] (run 4) and in assay [1] (run 5) was > 66 µM each time. The IC50 in assay [1] (run 6) is > 66 µM; in the assay on IL8 (PAF-induced) it was > 66 µM; in the assay with IL8 (TNFa-induced), > 66 µM; in assay [2] (IL8, PAF-induced, run 1), > 66 µM; in assay [2] (IL8, PAF-induced, run 2), > 66 µM; in assay [2] (IL8, PAF-induced, run 3), > 66 µM. Besides, the 50% inhibitory concentration (IC50) is > 66 µM in assay [2] (IL8, PAF-induced, run 4); > 66 µM in assay [2] (IL8, PAF-induced, run 5); > 66 µM in assay [2] (IL8, PAF-induced, run 6); > 66 µM in assay [2] (IL8, TNFa-induced, run 1); > 66 µM in assay [2] (IL8, TNFa-induced, run 2); > 66 µM in assay [2] (IL8, TNFa-induced, run 3). Besides, the IC50 is > 66 µM in assay [2] (IL8, TNFa-induced, run 4); > 66 µM in assay [2] (IL8, TNFa-induced, run 5); > 66 µM in assay [2] (IL8, TNFa-induced, run 6).

Turning to `O=C(Nc1ccc(N2CCN(C(=O)c3ccccc3)CC2)cc1)c1ccccc1`, the IC50 is 50.5 µM in assay [1] (setting [3]); 30.5 µM in assay [1] (run 1); 31.9 µM in assay [1] (run 2); 42.5 µM in assay [1] (run 3); > 66 µM in assay [1] (run 4); > 66 µM in assay [1] (run 5). Moreover, the 50% inhibitory concentration (IC50) in assay [1] (run 6) was > 66 µM; in the assay on IL8 (PAF-induced), > 66 µM; in the assay on IL8 (TNFa-induced), > 66 µM; in assay [2] (IL8, PAF-induced, run 1), > 66 µM; in assay [2] (IL8, PAF-induced, run 2), > 66 µM; in assay [2] (IL8, PAF-induced, run 3) it was > 66 µM. For the same compound, the half-inhibitory concentration (IC50) in assay [2] (IL8, PAF-induced, run 4) is > 66 µM; in assay [2] (IL8, PAF-induced, run 5), > 66 µM; in assay [2] (IL8, PAF-induced, run 6), > 66 µM; in assay [2] (IL8, TNFa-induced, run 1), > 66 µM; in assay [2] (IL8, TNFa-induced, run 2) it was > 66 µM; in assay [2] (IL8, TNFa-induced, run 3) it was > 66 µM. Besides, the IC50 in assay [2] (IL8, TNFa-induced, run 4) is > 66 µM; in assay [2] (IL8, TNFa-induced, run 5), > 66 µM; in assay [2] (IL8, TNFa-induced, run 6) it was > 66 µM.

Regarding `O=C(Nc1ccc(N2CCN(C(=O)c3ccccc3Cl)CC2)cc1)c1cccc(Br)c1`, the IC50 is 39.8 µM in assay [1] (setting [3]); > 66 µM in assay [1] (run 1); 16.8 µM in assay [1] (run 2); 24.3 µM in assay [1] (run 3); > 66 µM in assay [1] (run 4); > 66 µM in assay [1] (run 5). Besides, the IC50 in assay [1] (run 6) was > 66 µM; in the assay on IL8 (PAF-induced), 55 µM; in the assay on IL8 (TNFa-induced), > 66 µM; in assay [2] (IL8, PAF-induced, run 1), > 66 µM; in assay [2] (IL8, PAF-induced, run 2) it was > 66 µM; in assay [2] (IL8, PAF-induced, run 3), > 66 µM. The half-maximal inhibitory concentration (IC50) was > 66 µM in assay [2] (IL8, PAF-induced, run 4); > 66 µM in assay [2] (IL8, PAF-induced, run 5); > 66 µM in assay [2] (IL8, PAF-induced, run 6); > 66 µM in assay [2] (IL8, TNFa-induced, run 1); > 66 µM in assay [2] (IL8, TNFa-induced, run 2); > 66 µM in assay [2] (IL8, TNFa-induced, run 3). Besides, the concentration for half-maximal inhibition (IC50) is > 66 µM in assay [2] (IL8, TNFa-induced, run 4); > 66 µM in assay [2] (IL8, TNFa-induced, run 5); > 66 µM in assay [2] (IL8, TNFa-induced, run 6).

For the compound `O=C(Nc1ccc(N2CCN(C(=O)c3ccccc3Cl)CC2)cc1)c1ccccc1`, the IC50 is 4.12 µM in assay [1] (setting [3]); 3.91 µM in assay [1] (run 1); 4.12 µM in assay [1] (run 2); 4.31 µM in assay [1] (run 3); < 10 µM in assay [1] (run 4); < 10 µM in assay [1] (run 5). In addition, the half-maximal inhibitory concentration (IC50) in assay [1] (run 6) is < 10 µM; in the assay with IL8 (PAF-induced) it was 29.9 µM; in the assay with IL8 (TNFa-induced), 45.5 µM; in assay [2] (IL8, PAF-induced, run 1), > 66 µM; in assay [2] (IL8, PAF-induced, run 2), > 66 µM; in assay [2] (IL8, PAF-induced, run 3) it was 16.7 µM. The half-inhibitory concentration (IC50) in assay [2] (IL8, PAF-induced, run 4) was < 10 µM; in assay [2] (IL8, PAF-induced, run 5) it was < 10 µM; in assay [2] (IL8, PAF-induced, run 6) it was 10.6 µM; in assay [2] (IL8, TNFa-induced, run 1), > 66 µM; in assay [2] (IL8, TNFa-induced, run 2), > 66 µM; in assay [2] (IL8, TNFa-induced, run 3), > 66 µM. Also, the IC50 in assay [2] (IL8, TNFa-induced, run 4) is > 66 µM; in assay [2] (IL8, TNFa-induced, run 5) it was > 66 µM; in assay [2] (IL8, TNFa-induced, run 6), 8.88 µM.

As to `O=C(Nc1ccc(N2CCN(C(=O)c3ccccc3)CC2)cc1)c1ccccn1`, the 50% inhibitory concentration (IC50) in assay [1] (setting [3]), in assay [1] (run 1), in assay [1] (run 2), in assay [1] (run 3), in assay [1] (run 4) and in assay [1] (run 5) was > 66 µM in each case. Further, the IC50 in assay [1] (run 6) was > 66 µM; with IL8 (PAF-induced), > 66 µM; in the assay on IL8 (TNFa-induced), > 66 µM; in assay [2] (IL8, PAF-induced, run 1) it was > 66 µM; in assay [2] (IL8, PAF-induced, run 2), > 66 µM; in assay [2] (IL8, PAF-induced, run 3), > 66 µM. In addition, the concentration for half-maximal inhibition (IC50) in assay [2] (IL8, PAF-induced, run 4) was > 66 µM; in assay [2] (IL8, PAF-induced, run 5), > 66 µM; in assay [2] (IL8, PAF-induced, run 6) it was > 66 µM; in assay [2] (IL8, TNFa-induced, run 1), > 66 µM; in assay [2] (IL8, TNFa-induced, run 2) it was > 66 µM; in assay [2] (IL8, TNFa-induced, run 3), > 66 µM. Also, the half-maximal inhibitory concentration (IC50) in assay [2] (IL8, TNFa-induced, run 4) is > 66 µM; in assay [2] (IL8, TNFa-induced, run 5) it was > 66 µM; in assay [2] (IL8, TNFa-induced, run 6), > 66 µM.

A word on the IC50: it is the concentration that inhibits the measured activity by half. A high value points to a need for much substance.
